According to patent publication US11285156B2, “Substituted piperazines as KRAS G12C inhibitors” (Amgen Inc., priority 2018, dated 2022):

Columns and labels:
[1] = system: Phosphorylation of ERK1/2 in A549 cells; assay: Phospho-ERK1/2 MSD assay in A549 cells; type: cell-based; settings: Homo sapiens, A549, 2 h, read-out: p-ERK IC50 (2 h, A549; μM), 2 h compound treatment, A549 cells, EGF stimulated
How it was run: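 MSD electrochemiluminescent read-out of phospho-ERK1/2 in RIPA lysates. Cells in RPMI 1640 with 10% FBS received titrated compound for 2 or 4 h, then 10 ng/mL EGF for 10 min before ice-cold PBS wash and lysis.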

[2] = target: GDP-bound KRAS protein (aa 1-169), containing both G12C and C118A amino acid substitutions (Homo sapiens (Human), UniProt P01116, C118A/G12C); assay: Coupled nucleotide exchange assay (SOS-mediated nucleotide exchange, AlphaScreen); type: biochemical; settings: read-out: Coupled exchange IC50 (5 min; μM); 5 min compound pre-incubation
Description: Coupled Nucleotide Exchange Assay:
Following compound pre-incubation, purified SOS protein (aa 564-1049) and GTP (Roche 10106399001) were added to the assay wells and incubated for an additional 30 min (for 5 min compound pre-incubation) or 1 hour (for 2 hour compound pre-incubation). […] The assay plates were then read on a PerkinElmer EnVision Multilabel Reader, using AlphaScreen® technology, and data were analyzed using a 4-parameter logistic model to calculate IC50 values.

[3] = system: Phosphorylation of ERK1/2 in MIA PaCa-2 cells; assay: Phospho-ERK1/2 MSD assay in MIA PaCa-2 cells; type: cell-based; settings: Homo sapiens, MIA PaCa-2, 2 h, read-out: p-ERK IC50 (2 h, MiaPaCa-2; μM), 2 h compound treatment, MIA PaCa-2 cells, EGF stimulated
How it was run: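 Phospho-ERK1/2 measured by MSD electrochemiluminescence kit in RIPA lysates of MIA PaCa-2 cells. Cells were treated with compound titrations for 2 or 4 h at 37 °C, 5% CO2, followed by a 10 min pulse of 10 ng/mL EGF.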

GDP-bound KRAS protein (aa 1-169), containing both G12C and C118A amino acid substitutions, sequence (P01116 other isoform, or with tags, fused parts or gaps G12C/C118A): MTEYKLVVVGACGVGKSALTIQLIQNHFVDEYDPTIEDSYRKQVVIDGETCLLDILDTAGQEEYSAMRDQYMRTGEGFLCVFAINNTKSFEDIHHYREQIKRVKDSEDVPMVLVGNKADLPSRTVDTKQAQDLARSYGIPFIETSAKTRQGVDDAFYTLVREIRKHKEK

Compound: C=CC(=O)N1C[C@H](C)N(c2nc(=O)n(-c3c(C)ccnc3C(C)C)c3nc(-c4ccccc4C(=O)O)c(Cl)cc23)C[C@H]1C (atropisomer, axis not shown; (M)) [Example 92-29, (M)-2-[6-Chloro-4-[(2S,5R)-2,5-dimethyl-4-prop-2-enoyl-piperazin-1-yl]-1-(2-isopropyl-4-methyl-3-pyridyl)-2-oxo-pyrido[2,3-d]pyrimidin-7-yl]benzoic acid]
- IC50 [1]: > 7.5 µM
- IC50 [2]: 0.139 µM
- IC50 [3]: 10 µM

Compound: C=CC(=O)N1C[C@H](C)N(c2nc(=O)n(-c3c(C)ccnc3C(C)C)c3nc(-c4cc(F)c(F)cc4N)c(Cl)cc23)C[C@H]1C (atropisomer, axis not shown; (M)) [Example 92-31, (M)-7-(2-Amino-4,5-difluoro-phenyl)-6-chloro-4-[(2S,5R)-2,5-dimethyl-4-prop-2-enoyl-piperazin-1-yl]-1-(2-isopropyl-4-methyl-3-pyridyl)pyrido [2,3-d]pyrimidin-2-one]
- IC50 [1]: > 7.5 µM
- IC50 [2]: 0.014 µM
- IC50 [3]: 0.022 µM

Compound: C=CC(=O)N1C[C@H](C)N(c2nc(=O)n(-c3c(C)ccnc3C(C)C)c3nc(-c4ccccc4NS(C)(=O)=O)c(Cl)cc23)C[C@H]1C (atropisomer, axis not shown; (M)) [Example 92-32, (M)-N-[2-[6-Chloro-4-[(2S,5R)-2,5-dimethyl-4-prop-2-enoyl-piperazin-1-yl]-1-(2-isopropyl-4-methyl-3-pyridyl)-2-oxo-pyrido[2,3-d]pyrimidin-7-yl]phenyl] methanesul-fonamide]
- IC50 [1]: > 7.5 µM
- IC50 [2]: 0.075 µM
- IC50 [3]: 0.129 µM

Compound: C=CC(=O)N1C[C@H](C)N(c2nc(=O)n(-c3c(C)ccnc3C(C)C)c3nc(-c4ccccc4S(N)(=O)=O)c(Cl)cc23)C[C@H]1C (atropisomer, axis not shown; (M)) [Example 92-33, (M)-2-[6-Chloro-4-[(2S,5R)-2,5-dimethyl-4-prop-2-enoyl-piperazin-1-yl]-1-(2-isopropyl-4-methyl-3-pyridyl)-2-oxo-pyrido[2,3-d]pyrimidin-7-yl] benzenesul-fonamide]
- IC50 [1]: > 7.5 µM
- IC50 [2]: 0.113 µM
- IC50 [3]: 0.216 µM

Compound: C=CC(=O)N1C[C@H](C)N(c2nc(=O)n(-c3c(C)ccnc3C(C)C)c3nc(-c4cc(O)ccc4F)c(Cl)cc23)C[C@H]1C (atropisomer, axis not shown; (M)) [Example 92-34, (M)-6-Chloro-4-[(2S,5R)-2,5-dimethyl-4-prop-2-enoyl-piperazin-1-yl]-7-(2-fluoro-5-hydroxy-phenyl)-1-(2-isopropyl-4-methyl-3-pyridyl)pyrido [2,3-d]pyrimidin-2-one]
- IC50 [1]: > 7.5 µM
- IC50 [2]: 0.054 µM
- IC50 [3]: 0.06 µM

Compound: C=CC(=O)N1C[C@H](C)N(c2nc(=O)n(-c3c(C)ccnc3C(C)C)c3nc(-c4ccccc4[N+](=O)[O-])c(Cl)cc23)C[C@H]1C (atropisomer, axis not shown; (M)) [Example 92-36, (M)-6-Chloro-4-[(2S,5R)-2,5-dimethyl-4-prop-2-enoyl-piperazin-1-yl]-1-(2-isopropyl-4-methyl-3-pyridyl)-7-(2-nitrophenyl) pyrido[2,3-d]pyrimidin-2-one]
- IC50 [1]: 1.87 µM
- IC50 [2]: 0.275 µM
- IC50 [3]: 0.133 µM

Compound: C=CC(=O)N1C[C@H](C)N(c2nc(=O)n(-c3c(C)ccnc3C(C)C)c3nc(-c4cc(Br)ccc4F)c(Cl)cc23)C[C@H]1C (atropisomer, axis not shown; (M)) [Example 92-37, (M)-7-(5-Bromo-2-fluoro-phenyl)-6-chloro-4-[(2S,5R)-2,5-dimethyl-4-prop-2-enoyl-piperazin-1-yl]-1-(2-isopropyl-4-methyl-3-pyridyl)pyrido [2,3-d]pyrimidin-2-one]
- IC50 [1]: > 7.5 µM
- IC50 [2]: 0.048 µM
- IC50 [3]: 0.06 µM

Compound: C=CC(=O)N1C[C@H](C)N(c2nc(=O)n(-c3c(C)ccnc3C(C)C)c3nc(-c4cc(C#CC)ccc4F)c(Cl)cc23)C[C@H]1C (atropisomer, axis not shown; (M)) [Example 92-39, (M)-6-Chloro-4-[(2S,5R)-2,5-dimethyl-4-prop-2-enoyl-piperazin-1-yl]-7-(2-fluoro-5-prop-1-ynyl-phenyl)-1-(2-isopropyl-4-methyl-3-pyridyl)pyrido [2,3-d]pyrimidin-2-one]
- IC50 [1]: > 7.5 µM
- IC50 [2]: 0.032 µM
- IC50 [3]: 0.145 µM

Compound: C=CC(=O)N1C[C@H](C)N(c2nc(=O)n(-c3c(C)ccnc3C(C)C)c3nc(-c4c(F)cccc4C#N)c(Cl)cc23)C[C@H]1C (atropisomer, axis not shown; (M)) [Example 92-40, (M)-2-[6-Chloro-4-[(2S,5R)-2,5-dimethyl-4-prop-2-enoyl-piperazin-1-yl]-1-(2-isopropyl-4-methyl-3-pyridyl)-2-oxo-pyrido[2,3-d]pyrimidin-7-yl]-3-fluoro-benzonitrile]
- IC50 [1]: > 7.5 µM
- IC50 [2]: 0.244 µM
- IC50 [3]: 0.14 µM

Compound: C=CC(=O)N1C[C@H](C)N(c2nc(=O)n(-c3c(C)ccnc3C(C)C)c3nc(-c4ccccc4C(C)=O)c(Cl)cc23)C[C@H]1C (atropisomer, axis not shown; (M)) [Example 92-41, (M)-7-(2-Acetylphenyl)-6-chloro-4-[(2S,5R)-2,5-dimethyl-4-prop-2-enoyl-piperazin-1-yl]-1-(2-isopropyl-4-methyl-3-pyridyl)pyrido [2,3-d]pyrimidin-2-one]
- IC50 [1]: 3.75 µM
- IC50 [2]: 0.117 µM
- IC50 [3]: 0.075 µM

Compound: C=CC(=O)N1C[C@H](C)N(c2nc(=O)n(-c3c(C)ccnc3C(C)C)c3nc(-c4ccccc4)c(Cl)cc23)C[C@H]1C (atropisomer, axis not shown; (M)) [Example 92-42, (M)-6-Chloro-4-[(2S,5R)-2,5-dimethyl-4-prop-2-enoyl-piperazin-1-yl]-1-(2-isopropyl-4-methyl-3-pyridyl)-7-phenyl-pyrido[2,3-d]pyrimidin-2-one]
- IC50 [1]: > 7.5 µM
- IC50 [2]: 0.117 µM
- IC50 [3]: 0.08 µM

Compound: C=CC(=O)N1C[C@H](C)N(c2nc(=O)n(-c3c(C)ccnc3C(C)C)c3nc(-c4cc(Cl)ccc4F)c(Cl)cc23)C[C@H]1C (atropisomer, axis not shown; (M)) [Example 92-44, (M)-6-Chloro-7-(5-chloro-2-fluoro-phenyl)-4-[(2S,5R)-2,5-dimethyl-4-prop-2-enoyl-piperazin-1-yl]-1-(2-isopropyl-4-methyl-3-pyridyl)pyrido [2,3-d]pyrimidin-2-one]
- IC50 [1]: > 7.5 µM
- IC50 [2]: 0.04 µM
- IC50 [3]: 0.098 µM

Compound: C=CC(=O)N1C[C@H](C)N(c2nc(=O)n(-c3c(C)ccnc3C(C)C)c3nc(-c4ccccc4C)c(Cl)cc23)C[C@H]1C (atropisomer, axis not shown; (M)) [Example 92-45, (M)-6-Chloro-4-[(2S,5R)-2,5-dimethyl-4-prop-2-enoyl-piperazin-1-yl]-1-(2-isopropyl-4-methyl-3-pyridyl)-7-(o-tolyl)pyrido[2,3-d]pyrimidin-2-one]
- IC50 [1]: > 7.5 µM
- IC50 [2]: 0.025 µM
- IC50 [3]: 0.023 µM

Compound: C=CC(=O)N1C[C@H](C)N(c2nc(=O)n(-c3c(C)ccnc3C(C)C)c3nc(-c4cccc(Cl)c4F)c(Cl)cc23)C[C@H]1C (atropisomer, axis not shown; (M)) [Example 92-46, (M)-6-Chloro-7-(3-chloro-2-fluoro-phenyl)-4-[(2S,5R)-2,5-dimethyl-4-prop-2-enoyl-piperazin-1-yl]-1-(2-isopropyl-4-methyl-3-pyridyl)pyrido [2,3-d]pyrimidin-2-one]
- IC50 [1]: > 7.5 µM
- IC50 [2]: 0.023 µM
- IC50 [3]: 0.032 µM

Compound: C#Cc1ccccc1-c1nc2c(cc1Cl)c(N1C[C@@H](C)N(C(=O)C=C)C[C@@H]1C)nc(=O)n2-c1c(C)ccnc1C(C)C (atropisomer, axis not shown; (M)) [Example 92-47, (M)-6-Chloro-4-[(2S,5R)-2,5-dimethyl-4-prop-2-enoyl-piperazin-1-yl]-7-(2-ethynylphenyl)-1-(2-isopropyl-4-methyl-3-pyridyl)pyrido [2,3-d]pyrimidin-2-one]
- IC50 [1]: > 7.5 µM
- IC50 [2]: 0.057 µM
- IC50 [3]: 0.049 µM

Compound: C#Cc1cccc(-c2nc3c(cc2Cl)c(N2C[C@@H](C)N(C(=O)C=C)C[C@@H]2C)nc(=O)n3-c2c(C)ccnc2C(C)C)c1 (atropisomer, axis not shown; (M)) [Example 92-48, (M)-6-Chloro-4-[(2S,5R)-2,5-dimethyl-4-prop-2-enoyl-piperazin-1-yl]-7-(3-ethynylphenyl)-1-(2-isopropyl-4-methyl-3-pyridyl)pyrido [2,3-d]pyrimidin-2-one]
- IC50 [1]: > 7.5 µM
- IC50 [2]: 0.247 µM
- IC50 [3]: 0.365 µM

Compound: C=CC(=O)N1C[C@H](C)N(c2nc(=O)n(-c3c(C)ccnc3C(C)C)c3nc(-c4cccc(C#CC)c4)c(Cl)cc23)C[C@H]1C (atropisomer, axis not shown; (M)) [Example 92-49, (M)-6-Chloro-4-[(2S,5R)-2,5-dimethyl-4-prop-2-enoyl-piperazin-1-yl]-1-(2-isopropyl-4-methyl-3-pyridyl)-7-(3-prop-1-ynylphenyl) pyrido[2,3-d]pyrimidin-2-one]
- IC50 [1]: > 7.5 µM
- IC50 [2]: 0.123 µM
- IC50 [3]: 0.328 µM

Compound: C=CC(=O)N1C[C@H](C)N(c2nc(=O)n(-c3c(C)ccnc3C(C)C)c3nc(-c4ccccc4Cl)c(Cl)cc23)C[C@H]1C (atropisomer, axis not shown; (M)) [Example 92-51, (M)-6-Chloro-7-(2-chlorophenyl)-4-[(2S,5R)-2,5-dimethyl-4-prop-2-enoyl-piperazin-1-yl]-1-(2-isopropyl-4-methyl-3-pyridyl)pyrido [2,3-d]pyrimidin-2-one]
- IC50 [1]: > 7.5 µM
- IC50 [2]: 0.033 µM
- IC50 [3]: 0.03 µM
